Experiment [1] has as its system HSV-1 infected mice (zoster-associated pain in acute phase). In words: Mouse model of herpes zoster, pain-associated reaction to von Frey filament (0.16 g) after intrathecal administration. Type of experiment: in vivo. Particulars: five to seven days after infection. The text has this:
Epidermis of the right hind leg (lower part of knee joint) of shaven female C57BL/6J mice was chopped with a bundle of ten 26G injection needles, and coated with a solution (1×10^6 pfu/site) of herpes simplex virus Type I (HSV-1), which as well as varicella zoster virus, belongs to Herpesviridae (family) (Takasaki I, et al., Anesthesiology, 2002, 96:1168-1174). Seven days after infection, the spinal cord was collected after perfusion of 4% neutral buffered paraformaldehyde, replaced with 30% sucrose solution, embedded with OCT compound to prepare frozen slices. […]
The effect of P2X4 receptor antagonism on zoster-associated pain in acute phase was studied using the mouse model of herpes zoster described in Example 2. […] Threshold of the pain was measured before administration of the drug (AM 9:30 to 10:00 and PM 5:30 to 6:00). Pain-associated reaction on the HSV-1 infection side hindpaw was measured using von Frey Filament (0.16 g). […] The pain reaction was evaluated as follows: • Score 0: No reaction • Score 1: Lifting of hind leg • Score 2: Sharp evasion reaction and flinching of hind leg
Each individual pain score was calculated by averaging six scores. The allodynia score (%) was calculated as the average score of each group by counting the maximum reaction score 2 as 100%.
Threshold of the pain was measured before administration of the drugs (AM 9:30 to 10:00 and PM 5:30 to 6:00).

Experiment [2] concerns HSV-1 infected mice (zoster-associated pain). In words: Mouse model of herpes zoster, pain-associated reaction to paintbrush stimulus after oral administration. Type of experiment: in vivo. The text has this:
Epidermis of the right hind leg (lower part of knee joint) of shaven female C57BL/6J mice was chopped with a bundle of ten 26G injection needles, and coated with a solution (1×10^6 pfu/site) of herpes simplex virus Type I (HSV-1), which as well as varicella zoster virus, belongs to Herpesviridae (family) (Takasaki I, et al., Anesthesiology, 2002, 96:1168-1174). Seven days after infection, the spinal cord was collected after perfusion of 4% neutral buffered paraformaldehyde, replaced with 30% sucrose solution, embedded with OCT compound to prepare frozen slices. A specimen in cross section was prepared at the fifth lumbar level of the spinal cord, and was subjected to a fluorescent double immunostaining according to Alexa Fluor 488, 546 using OX42 antibody, which has widely been used as a microglia marker, and P2X4 receptor antibody. […] The pain-associated reaction of the hindpaw on the HSV-1 infection side was measured and evaluated referring to the response to a contact stimulant using a paint-brush. The mouse was placed into a cage for measurement, and accustomed to the environment for 1 hour or more. The plantar surface of the right hindpaw was vertically stroked with the paintbrush along the direction from toe to heal, and this was repeated six times at intervals of several seconds. The pain reaction was evaluated as follows: • Score 0: No reaction • Score 1: Lifting of hind leg • Score 2: Sharp evasion reaction and flinching of hind leg Each individual pain score was calculated by averaging six scores.

The next experiment deals with T1, P2X4 receptor (Homo sapiens, UniProt Q99571).
T1 sequence (Q99571 1-388): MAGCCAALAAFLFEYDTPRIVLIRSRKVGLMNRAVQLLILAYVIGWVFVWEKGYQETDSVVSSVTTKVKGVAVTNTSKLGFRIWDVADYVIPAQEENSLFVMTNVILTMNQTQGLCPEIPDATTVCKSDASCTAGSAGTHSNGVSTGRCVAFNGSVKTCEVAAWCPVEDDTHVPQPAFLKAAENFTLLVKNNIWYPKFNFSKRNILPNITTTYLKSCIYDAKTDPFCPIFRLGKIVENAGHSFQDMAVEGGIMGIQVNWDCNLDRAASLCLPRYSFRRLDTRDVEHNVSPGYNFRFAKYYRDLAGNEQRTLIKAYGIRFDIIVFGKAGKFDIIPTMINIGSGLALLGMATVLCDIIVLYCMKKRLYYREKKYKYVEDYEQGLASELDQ
To be noted: reported in cited WO documents and Nagata K, Imai T et al., Molecular Pain, 2009, 5:20; cited from earlier work.

SMILES strings stand for the structures.

For `O=C1CC(=O)N(c2cccc(-c3noc(=S)[nH]3)c2)c2ccc3ccccc3c2N1.[Na]` [Compound A, 5-[3-(5-thioxo-4H-[1,2,4]oxadiazol-3-yl)phenyl]-1H-naphtho[1,2-b][1,4]diazepine-2,4(3H,5H)-dione sodium salt], the “threshold score of the pain (von Frey, allodynia score)” value in experiment [1] (10 pmol/mouse intrathecal twice a day) and in experiment [1] (30 pmol/mouse intrathecal twice a day) was “significantly suppressed” in each case.
As for `Fc1ccc([C@@H]2CCNC[C@H]2COc2ccc3c(c2)OCO3)cc1` [Paroxetine], the “threshold of the pain (paintbrush pain score)” value was “significantly improved” in experiment [2] (seven days after infection (acute phase), 30 mg/kg oral, from 1 hour to 4 hours after administration); “continuously improved” in experiment [2] (seven days after infection (acute phase), 50 mg/kg oral, from 30 minutes to 8 hours after administration); “did not show any significant improvement” in experiment [2] (thirty days after infection (postherpetic neuralgia), 30 mg/kg oral); “significant improvement was observed” in experiment [2] (thirty days after infection (postherpetic neuralgia), 50 mg/kg oral, 30 minutes, 1 hour and 4 hours after administration). Moreover, the “P2X4 receptor antagonism / inhibition (in words)” value on P2X4 receptor was “functions as an inhibitor of P2X4 receptor”.

The record behind these values is patent US9115123B2, “Preventive or therapeutic agent for pain associated with herpes zoster in acute phase” (Kyushu University, priority 2010, dated 2015).
